This experiment addresses hOT7T175 (Homo sapiens, UniProt Q969F8, L364H). In words: Intracellular Ca ion level-increasing activity using FLIPR in hOT7T175/CHO. Also noted: expressed in transfected cells; host or cells: CHO/dhfr- cells, obtained from ATCC. In kind it is cell-based. The following applies: relative, Metastin (1-54) = 1. As for the experimental part:
Assay for Intracellular Ca Ion Level-Increasing Activity Using Flipr
In accordance with the method described in JPA 2000-312590, the intracellular Ca ion level-increasing activity was measured using FLIPR.
The stable expression cell line hOT7T175 was acquired by transduction of expression plasmid pAK-rOT175 for animal cells into CHO/dhff cells, using CellPhect Transfection Kit (Amersham Pharmacia Biotech, Inc.). First, 240 μL of Buffer A (attached to CellPhect Transfection Kit) was added to 9.6 μg of plasmid DNA dissolved in 240 μl of distilled water, followed by stirring. After settling the mixture for 10 minutes, 480 μL of Buffer B (attached to CellPhect Transfection Kit) was added to the mixture, which was vigorously stirred to form DNA-containing liposomes. Then, 4×10^5 CHO/dhff cells (obtained from ATCC) were inoculated on a 60 mm Petri dish. […] After culturing the cells at 37° C. for 6 hours in 5% carbon dioxide gas, the cells were washed twice with serum-free Ham's F-12 medium and 3 ml of 15% glycerol was added to the cells in the Petri dish to treat for 2 minutes. The cells were again washed twice with serum-free Ham's F-12 medium followed by incubation in Ham's F-12 medium supplemented with 10% fetal bovine serum at 37° C. for 15 hours in 5% carbon dioxide gas. The cells were dispersed by trypsin treatment and recovered from the Petri dish. The recovered cells were inoculated on a 6-well plate in 1.25×10^4 cells/well and incubation was initiated at 37° C. in Dulbecco's modified Eagle medium (DMEM) medium (Nissui Seiyaku Co., Ltd.) containing 10% dialyzed fetal bovine serum (JRH BIOSCIENCES, Inc.) under 5% carbon dioxide gas. […] The medium was exchanged on Days 1 and 2 to remove the cells died.
The intracellular Ca ion level-increasing activity of the synthetic peptide in hOT7T175/CHO was determined using FLIPR (Molecular Devices, Inc.).
hOT7T175/CHO was subcultured in DMEM supplemented with 10% dialyzed fetal bovine serum (hereinafter abbreviated as dFBS) and provided for the experiment (hereinafter abbreviated as 10% dFBS/DMEM). The hOT7T175/CHO was suspended in 10% dFBS-DMEM in 15×10^4 cells/ml. The suspension was inoculated on a 96-well plate for FLIPR (Black Plate Clear Bottom, Coster, Inc.) at 200 μL each (3.0×10^4 cells/200 μL/well), followed by incubation at 37° C. overnight in a 5% CO2 incubator (hereinafter simply referred to as the cell plate). Then, 21 ml of HANKS/HBSS (9.8 g of HANKS, 0.35 g of sodium hydrogencarbonate, 20 ml of 1M HEPES; after adjusting the pH to 7.4 with 1N sodium hydroxide, the mixture was sterilized by filtration), 210 μl of 250 mM Probenecid and […] of fetal bovine serum (FBS) were mixed (HANKS/HBSS-Probenecid-FBS).
Furthermore, 2 vials of Fluo3-AM (50 μug/vial) were dissolved in 21 μL of dimethylsulfoxide and 21 μL of 20% Pluronic acid. The resulting solution was added to and mixed with 10 ml of HANKS/HBSS-Probenecid-FBS described above. After the culture medium was removed, the mixture was dispensed onto the cell plate in 100 μL each/well, followed by incubation at 37° C. for an hour in a 5% CO2 incubator (pigment loading). The peptide was dissolved in dimethylsulfoxide in 1×10^−3 M. The peptide solution was diluted with HANKS/HBSS containing 2.5 mM Probenecid, 0.2% BSA and 0.1% CHAPS.

Square brackets hold non-standard residues; d marks the D form. Ends that are not written are not given here. Peptide text beside a SMILES is read from it. * marks the point of attachment. X12 = CNC(=N)NCCC[C@H](NC(=O)[C@H](CC(C)C)NCCN*)C(=O)N[C@@H](Cc1ccccc1)C(N)=O; Butyryl(4-indol-3-yl) = O=C(CCCc1c[nH]c2ccccc12)*; Arg(Me) = CNC(=N)NCCC[C@H](N)C(=O)O; Fmoc = O=C(OCC1c2ccccc2-c2ccccc21)*; d3Pal = N[C@H](Cc1cccnc1)C(=O)O; Cha = N[C@@H](CC1CCCCC1)C(=O)O; Boc = CC(C)(C)OC(=O)*; azaGly = NNC(=O)O

Sequence of hOT7T175 (Q969F8 whole entry L364H): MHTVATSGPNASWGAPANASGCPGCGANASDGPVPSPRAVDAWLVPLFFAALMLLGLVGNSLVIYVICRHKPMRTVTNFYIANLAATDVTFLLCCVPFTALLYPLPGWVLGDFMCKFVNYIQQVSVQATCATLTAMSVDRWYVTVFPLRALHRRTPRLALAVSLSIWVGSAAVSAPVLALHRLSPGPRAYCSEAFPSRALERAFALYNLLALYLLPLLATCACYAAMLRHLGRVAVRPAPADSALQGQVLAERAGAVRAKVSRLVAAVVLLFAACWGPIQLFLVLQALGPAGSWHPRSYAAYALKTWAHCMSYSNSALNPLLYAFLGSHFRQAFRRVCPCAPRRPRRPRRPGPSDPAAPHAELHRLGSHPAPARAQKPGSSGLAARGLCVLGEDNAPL

As for `CNC(=N)NCCC[C@H](NC(=O)[C@H](CC(C)C)NCCNC(=O)[C@H](Cc1ccccc1)NC(=O)[C@H](CO)NC(=O)[C@H](CC(N)=O)NC(=O)[C@H](Cc1c[nH]c2ccccc12)NC(=O)[C@H](CC(N)=O)NC(=O)[C@H](N)Cc1ccc(O)cc1)C(=O)N[C@@H](Cc1ccccc1)C(N)=O` [Compound No. 307, D-Tyr-Asn-Trp-Asn-Ser-Phe-GlyΨ(CH2NH)Leu-Arg(Me)-Phe-NH2] (H-[dY]NWNSF-X12), the “Specific Activity (intracellular Ca ion level-increasing activity)” value is listed as 1.

As to `CC(C)C[C@H](NC(=O)CNC(=O)[C@H](Cc1ccccc1)NC(=O)[C@H](CO)NC(=O)[C@H](CC(N)=O)NC(=O)[C@H](Cc1c[nH]c2ccccc12)NC(=O)[C@@H](CC(N)=O)NC(=O)[C@@H](N)Cc1ccc(O)cc1)C(=O)N[C@@H](CCCNC(=N)N)C(=O)N[C@@H](Cc1ccccc1)C(N)=O` [Compound No. 41], the “Specific Activity (intracellular Ca ion level-increasing activity)” value is 10.

In the case of `CNC(=N)NCCC[C@H](NC(=O)[C@H](CC(C)C)NC(=O)NNC(=O)[C@H](Cc1ccccc1)NC(=O)[C@H](CO)NC(=O)[C@H](CC(N)=O)NC(=O)[C@H](CC1CCCCC1)NC(=O)[C@H](CC(N)=O)NC(=O)[C@H](N)Cc1ccc(O)cc1)C(=O)N[C@@H](Cc1ccccc1)C(N)=O` [Compound No. 190, D-Tyr-Asn-Cha-Asn-Ser-Phe-AzaGly-Leu-Arg(Me)-Phe-NH2] (H-[dY]N[Cha]NSF[azaGly]L[Arg(Me)]F-NH2), the “Specific Activity (intracellular Ca ion level-increasing activity)” value is listed as 10.

Take `CNC(=N)NCCC[C@H](NC(=O)[C@H](CC(C)C)NC(=O)NNC(=O)[C@H](Cc1ccccc1)NC(=O)[C@H](CO)NC(=O)[C@H](CC(N)=O)NC(=O)[C@H](Cc1c[nH]c2ccccc12)NC(=O)[C@H](CC(N)=O)NC(=O)[C@H](N)Cc1cccnc1)C(=O)N[C@@H](Cc1ccccc1)C(N)=O` [Compound No. 258, D-Pya(3)-Asn-Trp-Asn-Ser-Phe-AzaGly-Leu-Arg(Me)-Phe-NH2] (H-[d3Pal]NWNSF[azaGly]L[Arg(Me)]F-NH2): the “Specific Activity (intracellular Ca ion level-increasing activity)” value was 2.

With `CC(=O)N[C@@H](Cc1ccc(O)cc1)C(=O)N[C@@H](CC(N)=O)C(=O)N[C@@H](Cc1c[nH]c2ccccc12)C(=O)N[C@@H](CC(N)=O)C(=O)N[C@@H](CO)C(=O)N[C@@H](Cc1ccccc1)C(=O)NCC(=O)N[C@@H](CC(C)C)C(=O)N[C@@H](CCCNC(=N)N)C(=O)N[C@@H](Cc1ccccc1)C(N)=O` [Compound No. 30], the “Specific Activity (intracellular Ca ion level-increasing activity)” value is recorded as 10.

Turning to “Boc-Tyr-Asn-Trp-Phe-Gly-Leu-Arg-Phe-NH2 (Boc-YNWFGLRF-NH2; SMILES CC(C)C[C@H](NC(=O)CNC(=O)[C@H](Cc1ccccc1)NC(=O)[C@H](Cc1c[nH]c2ccccc12)NC(=O)[C@H](CC(N)=O)NC(=O)[C@H](Cc1ccc(O)cc1)NC(=O)OC(C)(C)C)C(=O)N[C@@H](CCCNC(=N)N)C(=O)N[C@@H](Cc1ccccc1)C(N)=O) [Compound No. 87]”, the “Specific Activity (intracellular Ca ion level-increasing activity)” value amounted to 1.

Regarding `CNC(=N)NCCC[C@H](NC(=O)[C@H](CC(C)C)NC(=O)CNC(=O)[C@H](CC1CCCCC1)NC(=O)[C@H](CO)NC(=O)[C@H](CC(N)=O)NC(=O)[C@H](Cc1c[nH]c2ccccc12)NC(=O)[C@H](CC(N)=O)NC(=O)[C@H](N)Cc1ccc(O)cc1)C(=O)N[C@@H](Cc1ccccc1)C(N)=O` [Compound No. 203, D-Tyr-Asn-Trp-Asn-Ser-Cha-Gly-Leu-Arg(Me)-Phe-NH2] (H-[dY]NWNS[Cha]GL[Arg(Me)]F-NH2), the “Specific Activity (intracellular Ca ion level-increasing activity)” value was found to be 10.

For the molecule `CNC(=N)NCCC[C@H](NC(=O)[C@H](CC(C)C)NC(=O)NNC(=O)[C@H](Cc1ccccc1)NC(=O)[C@H](CO)NC(=O)[C@H](CC(N)=O)NC(=O)[C@H](Cc1c[nH]c2ccccc12)NC(=O)[C@@H](CO)NC(=O)[C@H](N)Cc1ccc(O)cc1)C(=O)N[C@@H](Cc1ccccc1)C(N)=O` [Compound No. 287, D-Tyr-D-Ser-Trp-Asn-Ser-Phe-AzaGly-Leu-Arg(Me)-Phe-NH2] (H-[dY][dS]WNSF[azaGly]L[Arg(Me)]F-NH2), the “Specific Activity (intracellular Ca ion level-increasing activity)” value was determined as 2.

Turning to “Dap-D-Tyr-Asn-Trp-Asn-Ser-Phe-Gly-Leu-Arg(Me)-Phe-NH2 [Compound No. 387]”, the “Specific Activity (intracellular Ca ion level-increasing activity)” value is reported as 1.

As for `CNC(=N)NCCC[C@H](NC(=O)[C@H](CC(C)C)NC(=O)NNC(=O)[C@H](Cc1ccccc1)NC(=O)[C@H](CO)NC(=O)[C@H](CC(N)=O)NC(=O)[C@H](Cc1ccccc1)NC(=O)[C@@H](CC(N)=O)NC(=O)[C@H](N)Cc1ccc(O)cc1)C(=O)N[C@@H](Cc1ccccc1)C(N)=O` [Compound No. 257, D-Tyr-D-Asn-Phe-Asn-Ser-Phe-AzaGly-Leu-Arg(Me)-Phe-NH2] (H-[dY][dN]FNSF[azaGly]L[Arg(Me)]F-NH2), the “Specific Activity (intracellular Ca ion level-increasing activity)” value was determined as 3.

For the molecule “D-Tyr-Asn-Trp-Gln-Ser-Phe-Gly-Leu-Arg(Me)-Phe-NH2 ([dY]NWQSFGL[Arg(Me)]F-NH2; N-terminus assumed; SMILES CNC(=N)NCCC[C@H](NC(=O)[C@H](CC(C)C)NC(=O)CNC(=O)[C@H](Cc1ccccc1)NC(=O)[C@H](CO)NC(=O)[C@H](CCC(N)=O)NC(=O)[C@H](Cc1c[nH]c2ccccc12)NC(=O)[C@H](CC(N)=O)NC(=O)[C@H](N)Cc1ccc(O)cc1)C(=O)N[C@@H](Cc1ccccc1)C(N)=O) [Compound No. 209]”, the “Specific Activity (intracellular Ca ion level-increasing activity)” value is “½”.

For `CNC(=N)NCCC[C@H](NC(=O)[C@H](CC(C)C)NC(=O)NNC(=O)[C@H](Cc1ccccc1)NC(=O)[C@H](CO)NC(=O)[C@H](CC(N)=O)NC(=O)[C@H](Cc1ccccc1)NC(=O)[C@H](N)Cc1cccnc1)C(=O)N[C@@H](Cc1ccccc1)C(N)=O` [Compound No. 256, D-Pya(3)-Phe-Asn-Ser-Phe-AzaGly-Leu-Arg(Me)-Phe-NH2] (H-[d3Pal]FNSF[azaGly]L[Arg(Me)]F-NH2), the “Specific Activity (intracellular Ca ion level-increasing activity)” value amounted to 1.

In the case of `CC(=O)NC(=N)NCCC[C@H](NC(=O)[C@H](CC(C)C)NC(=O)CNC(=O)[C@H](Cc1ccccc1)NC(=O)[C@H](CO)NC(=O)[C@H](CC(N)=O)NC(=O)[C@H](Cc1c[nH]c2ccccc12)NC(=O)[C@H](CC(N)=O)NC(=O)[C@H](N)Cc1ccc(O)cc1)C(=O)N[C@@H](Cc1ccccc1)C(N)=O` [Compound No. 194], the “Specific Activity (intracellular Ca ion level-increasing activity)” value is on record as 1.

For `CC(C)C[C@H](NC(=O)CNC(=O)[C@H](Cc1ccccc1)NC(=O)[C@H](CO)NC(=O)[C@H](CC(N)=O)NC(=O)[C@H](Cc1c[nH]c2ccccc12)NC(=O)OCC1c2ccccc2-c2ccccc21)C(=O)N[C@@H](CCCNC(=N)N)C(=O)N[C@@H](Cc1ccccc1)C(N)=O` [Compound No. 54] (Fmoc-WNSFGLRF-NH2), the “Specific Activity (intracellular Ca ion level-increasing activity)” value is listed as 5.

Regarding `CC(C)C[C@H](NC(=O)NNC(=O)[C@H](Cc1ccccc1)NC(=O)[C@H](CO)NC(=O)[C@H](CC(N)=O)NC(=O)[C@H](Cc1c[nH]c2ccccc12)NC(=O)[C@H](CC(N)=O)NC(=O)[C@@H](N)Cc1ccc(O)cc1)C(=O)N[C@@H](CCCNC(=N)N)C(=O)N[C@@H](Cc1ccccc1)C(N)=O` [Compound No. 176, Tyr-Asn-Trp-Asn-Ser-Phe-AzaGly-Leu-Arg-Phe-NH2], the “Specific Activity (intracellular Ca ion level-increasing activity)” value turned out to be 5.

On to `CNC(=N)NCCC[C@H](NC(=O)[C@H](CC(C)C)NC(=O)NNC(=O)[C@H](Cc1ccccc1)NC(=O)[C@H](CO)NC(=O)[C@H](CC(N)=O)NC(=O)CCCc1c[nH]c2ccccc12)C(=O)N[C@@H](Cc1ccccc1)C(N)=O` [Compound No. 267, 4-(3-Indolyl)butyryl-Asn-Ser-Phe-AzaGly-Leu-Arg(Me)-Phe-NH2] ({Butyryl(4-indol-3-yl)}-NSF[azaGly]L[Arg(Me)]F-NH2), for which the “Specific Activity (intracellular Ca ion level-increasing activity)” value is on record as 2.

(Values after patent US8361968B2 (Takeda Pharmaceutical Company Limited, priority 2002, dated 2013).)
